# Experiments:
# CSF-1R = molecular target: T1, CSF-1R (Homo sapiens, UniProt P07333); assay: CSF-1R kinase assay (HTRF kinEASE TK); assay type: biochemical; conditions: ATP 2.5 uM, enzyme 0.012 ng/ul, read-out: In vitro inhibitory activity of CSF-1R IC50
# T1 construct: purchased Invitrogen PV3249
# Description: Example 53: CSF-1R Kinase Assay
# I. Materials and Instruments
# • 2104 EnVision® Multilabel Reader (PerkinElmer) • OptiPlate-384, White Opaque 384-well MicroPlate (Cat.6007290, PerkinElmer) • HTRF kinEASE TK (Cat.62TKOPEC, Cisbio) • CSF-1R(Cat. PV3249, Invitrogen) • ATP 10 mM (Cat. PV3227, Invitrogen) • DTT 1 M (Cat. D5545, Sigma) • MgCl2 1 M (Cat. M8266, Sigma) • MnCl2 1 M (Cat.244589. Sigma)
# II. Experimental Procedure
# Substrate-TK and ATP were diluted to 5 times of the reaction concentration by 1×Kinase Buffer. CSF1R enzyme was diluted to 5×enzyme solution by 1×kinase buffer. Sa-XL665 was diluted to 4×Sa-XL665 solution by Detection Buffer. 100×TK-Ab-Cryptate Solution TK-Ab-Cryptate was diluted to 100×TK-Ab-Cryptate solution by Detection Buffer. 2. Experimental Procedure After all reagents had been prepared according to the above method, except enzymes, the sample was added after equilibrium to room temperature. • a. Firstly, 2.5% DMSO solution was prepared by using 1×kinase buffer (the high concentration of DMSO will affect the reaction and control the final concentration of DMSO to 1%). Then the compounds were diluted by 2.5% DMSO solution corresponding to the enzyme. The screening concentration of the compounds was 4 times gradient dilution from 1000 nM, and 8 concentrations. In addition to the control pore, 4 microlitres of diluted solution containing 2.5% DMSO were added to the reaction pore and 4 microlitres of previously prepared solution containing 2.5% DMSO were added to the control pore. • b. 2 microlitres of previously prepared TK-biotin substrate solution was added to all reaction pore (the amount of substrate used for enzyme screening is shown in Table 15). • c. Adding 2 microlitres of CSF1R enzyme solution of corresponding concentration (the amount of enzyme is shown in Table 15) to all reaction pore except negative pore. The negative pore is supplemented with 2 microlitres of enzyme corresponding to 1 xkinase buffer. After mixing, the compound and enzyme can be fully combined by incubating at room temperature for 10 minutes. • d. Enzyme reaction was initiated by adding 2 microlitres ATP solution of corresponding concentration to all reaction pore. The reaction time was 30 minutes (the corresponding ATP concentration and reaction time at enzyme screening were shown in Table 15). • e. Preparing the test solution 5 minutes before the end of kinase reaction. Streptavidin-XL665 and TK antibody europium cryptate (1:100) were prepared with detection buffer in the kit (the corresponding concentration of detection reagent for enzyme screening is shown in Table 15). • f. After the kinase reaction, 5 microlitres of diluted Streptavidin-XL665 were added to all reaction pore, mixing, and then the diluted TK antibody europium cryptate solution was added immediately. • g. After 1 hour reaction at room temperature, the fluorescence signals (320 nm stimulation, 665 nm, 615 nm emission) were detected by ENVISION (Perkinelmer) instrument. The inhibition rate of each pore was calculated by full active pore and background signal pore, and the average value of complex pore was obtained. Meanwhile, the half inhibitory activity (IC50) of each compound was fitted by professional drawing analysis software PRISM 5.0. The Flow Chart of the Experiment is as Follows:
# 3. Data Analysis Emission Ratio (ER)=665 nm Emission signal/615 nm Emission signal Inhibitory rate=(ERpositive−ERsample)/(ERpositive−ERnegative)*100% Using Graphpad Prism 5 and log (inhibitor) vs. normalized response to fit IC50 curve and calculate IC50 value. The IC50 data of the compounds prepared in Representative Examples 3-52 are as follows (Table 18): […]
# NFS-60 cells = assay: NFS-60 cell assay (CCK proliferation, M-CSF stimulated); assay type: cell-based; conditions: Mus musculus, compound 0.5 uM, 72 h, 40 ng/mL M-CSF, read-out: inhibition ratio % (NFS-60 cell proliferation)
# Description: Example 54: NFS-60 Cell Assay
# 1. Experimental Materials
# Mouse Myelogenous Leukemia Cells (NFS-60)
# Using DMSO to dissolve, and the required concentration was prepared with full culture medium without factors.
# Penicillin-streptomycin: TRANS
# Mouse M-CSF/CSF-1 Protein: Sino Biological Inc, No. 51112-MNAH
# M-CSF: Qilu Pharmaceutical co., Ltd.
# The logarithmic growth phase of NFS-60 cells (1640+10% FBS+40 ng/ml M-CSF+1% Penicillin-streptomycin) were centrifuged (1000 r/min) and cultured in a factor-free medium at 37° C., 5% CO2 for 24 hours. Centrifugating (1000 r/min), the culture medium was replaced by new culture medium including 40 ng/mL factors, and inoculated on 96-well plate by 2*10^4 cells/mL, 100 μL/hole. After 16 hours, the tested compounds were added 10 μL/hole, 3 duplicate holes per compound, 37° C., 5% CO2, continue to cultured for 72 h. Then 10 μL CCK reagent was added to each hole. After incubation for 4 hours, the absorbance of each hole was measured at 450 nm wavelength. According to Formula: Inhibitory rate (%)=(1-OD value of test pore/OD value of solvent control pore)×100% 3. Experimental Results The experimental results of the inhibition of NFS-60 cell proliferation by the compounds prepared in Example 3-52, 0.5 uM, are shown in the following table: […]
# T1 sequence (P07333 20-972): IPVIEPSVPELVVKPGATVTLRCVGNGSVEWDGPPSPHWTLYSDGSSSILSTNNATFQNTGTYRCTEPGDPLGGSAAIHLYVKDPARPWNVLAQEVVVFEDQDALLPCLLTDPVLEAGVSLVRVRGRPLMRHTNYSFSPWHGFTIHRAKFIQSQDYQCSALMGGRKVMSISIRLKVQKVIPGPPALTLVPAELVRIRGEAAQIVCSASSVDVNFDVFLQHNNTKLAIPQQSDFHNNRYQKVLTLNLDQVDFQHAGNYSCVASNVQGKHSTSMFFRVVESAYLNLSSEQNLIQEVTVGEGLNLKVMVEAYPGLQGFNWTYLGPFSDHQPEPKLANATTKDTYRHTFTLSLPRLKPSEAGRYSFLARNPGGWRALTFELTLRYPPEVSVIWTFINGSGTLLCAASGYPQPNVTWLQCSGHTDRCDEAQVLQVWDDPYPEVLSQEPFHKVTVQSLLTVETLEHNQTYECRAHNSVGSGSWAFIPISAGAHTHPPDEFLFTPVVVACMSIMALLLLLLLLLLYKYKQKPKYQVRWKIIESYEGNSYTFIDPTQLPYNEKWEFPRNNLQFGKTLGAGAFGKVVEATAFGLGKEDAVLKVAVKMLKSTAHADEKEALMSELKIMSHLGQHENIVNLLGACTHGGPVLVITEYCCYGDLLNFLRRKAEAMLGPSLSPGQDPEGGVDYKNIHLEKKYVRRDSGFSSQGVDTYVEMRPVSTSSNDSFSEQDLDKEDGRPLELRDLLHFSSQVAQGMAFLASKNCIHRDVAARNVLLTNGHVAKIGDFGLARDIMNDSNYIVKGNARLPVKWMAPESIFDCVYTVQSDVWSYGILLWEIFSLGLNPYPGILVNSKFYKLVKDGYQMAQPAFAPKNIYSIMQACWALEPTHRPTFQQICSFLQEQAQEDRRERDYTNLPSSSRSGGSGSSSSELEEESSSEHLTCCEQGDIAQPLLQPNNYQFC
IC50 (CSF-1R) [nM],SMILES,inhibition at 0.5 µM (NFS-60 cells) [%]
51 to 500,"Cc1cccc(NC(=O)Nc2cccc(Oc3cc(Cl)cnc3N)c2)c1 [Compound 331, 1-(3-((2-amino-5-chloropyridin-3-yl)oxy)phenyl)-3-(m-tolyl)urea]",
500 to 10000,"C[C@@H](Oc1cc(Cl)cnc1N)c1cccc(NC(=O)c2cccc(CN3CCN(C)CC3)c2)c1 [Compound 103, (R)-N-(3-(1-((2-amino-5-chloropyridin-3-yl)oxy)ethyl)-phenyl)-3-((4-methylpiperazin-1-yl)methyl)benzamide]",
,"C[C@H](Oc1cc(Cl)cnc1N)c1cccc(NC(=O)c2cccc(C3CC3)c2)c1 [Compound 70, (S)-N-(3-(1-((2-amino-5-chloropyridin-3-yl)oxy)ethyl)-phenyl)-3-cyclopropylbenzamide]",≥ 50
≤ 50,"C[C@H](Oc1cc(Cl)cnc1N)c1cccc(NC(=O)c2cccc(Cl)c2)c1 [Compound 55, (S)-N-(3-(1-((2-amino-5-chloropyridin-3-yl)oxy)ethyl)-phenyl)-3-chlorobenzamide]",
,"C[C@@H](Oc1cc(-c2cnn(C3CC3)c2)cnc1N)c1cccc(NC(=O)c2cccc(N(C)C)c2)c1 [Compound 212, (R)-N-(3-(1-((2-amino-5-(1-cyclo-propyl-1H-pyrazol-4-yl)pyridin-3-yl)oxy)ethyl)phenyl)-3-(dimethyl-amino)benzamide]",≥ 50
≤ 50,"Cn1cc(-c2cnc(N)c(Oc3cccc(NC(=O)Nc4ccc(Cl)c(C(F)(F)F)c4)c3)c2)cn1 [Compound 348, 1-(3-((2-amino-5-(1-methyl-1H-pyrazol-4-yl)pyridin-3-yl)oxy)phenyl)-3-(4-chloro-3-(trifluoromethyl)phenyl)urea]",
≤ 50,"C[C@@H](Oc1cc(-c2cnn(C)c2)cnc1N)c1cccc(NC(=O)c2ccc3c(c2)CCC3)c1 [Compound 188, (R)-N-(3-(1-((2-amino-5-(1-methyl-1H-pyrazol-4-yl)pyridin-3-yl)oxy)ethyl)phenyl)-2,3-dihydro-1H-indene-5-carboxamide]",
51 to 500,"Cc1cccc(C(=O)Nc2cccc([C@@H](C)Oc3cncc(Cl)c3)c2)c1 [Compound 323, (R)—N-(3-(1-((5-chloropyridin-3-yl)oxy)ethyl)phenyl)-3-methylbenzamide]",
≤ 50,"Nc1ncc(Cl)cc1OCc1cccc(NC(=O)c2cccc(Cl)c2)c1 [Compound 22, N-(3-(((2-amino-5-chloropyridin-3-yl)oxy)methyl)phenyl)-3-chloro-benzamide]",
51 to 500,"C[C@@H](Oc1cncc(Cl)n1)c1cccc(NC(=O)c2cccc(C(F)(F)F)c2)c1 [Compound 327, (R)—N-(3-(1-((6-chloropyrazin-2-yl)oxy)ethyl)phenyl)-3-(trifluoromethyl)benzamide]",
51 to 500,"COc1cccc(C(=O)Nc2cc(C(C)Oc3cc(Cl)cnc3N)ccc2F)c1 (stereo not drawn) [Compound 318, N-(5-(1-((2-amino-5-chloropyridin-3-yl)oxy)ethyl)-2-fluorophenyl)-3-methoxybenzamide]",
≤ 50,"Cc1ccc(Cl)c(C(=O)Nc2cccc([C@@H](C)Oc3cc(Cl)cnc3N)c2)c1 [Compound 73, (R)-N-(3-(1-((2-amino-5-chloropyridin-3-yl)oxy)ethyl)-phenyl)-2-chloro-5-methylbenzamide]",
≤ 50,"Cc1cccc(C(=O)Nc2cccc([C@H](C)Oc3cc(Cl)cnc3N)c2)c1Cl [Compound 64, (S)-N-(3-(1-((2-amino-5-chloropyridin-3-yl)oxy)ethyl)-phenyl)-2-chloro-3-methylbenzamide]",
51 to 500,"CNc1ncc(Cl)cc1OCc1cccc(NC(=O)c2cccc(C)c2)c1 [Compound 236, N-(3-(((5-chloro-2-(methylamino)pyridin-3-yl)oxy)methyl)phenyl)-3-methylbenzamide]",
≤ 50,"CC(C)c1cccc(C(=O)Nc2cccc([C@@H](C)Oc3cc(-c4cnn(C)c4)cnc3N)c2)c1 [Compound 187, (R)-N-(3-(1-((2-amino-5-(1-methyl-1H-pyrazol-4-yl)pyridin-3-yl)oxy)ethyl)phenyl)-3-isopropylbenzamide]",
51 to 500,"Cc1cccc(C(=O)Nc2cccc(Oc3cc(Cl)cnc3N)c2)c1 [Compound 305, N-(3-((2-amino-5-chloropyridin-3-yl)oxy)phenyl)-3-methyl-benzamide]",
51 to 500,"Cc1cccc(C(=O)Nc2ccc(Cl)c([C@@H](C)Oc3cc(Cl)cnc3N)c2)c1Cl [Compound 95, (R)-N-(3-(1-((2-amino-5-chloropyridin-3-yl)oxy)ethyl)-4-chlorophenyl)-2-chloro-3-methylbenzamide]",
≤ 50,"Cc1ccc(C(=O)Nc2cccc([C@@H](C)Oc3cc(-c4cnn(C)c4)cnc3N)c2)cc1C [Compound 170, (R)-N-(3-(1-((2-amino-5-(1-methyl-1H-pyrazol-4-yl)pyridin-3-yl)oxy)ethyl)phenyl)-3,4-dimethyl benzamide]",
51 to 500,"Cc1cccc(NC(=O)c2cccc([C@H](C)Oc3cc(Cl)cnc3N)c2)c1 [Compound 222, (S)-3-(1-((2-amino-5-chloropyridin-3-yl)oxy)ethyl)-N-(m-tolyl)benzamide]",
≤ 50,"Cc1cc(C)cc(C(=O)Nc2cccc([C@@H](C)Oc3cc(-c4cnn(C)c4)cnc3N)c2)c1 [Compound 171, (R)-N-(3-(1-((2-amino-5-(1-methyl-1H-pyrazol-4-yl)pyridin-3-yl)oxy)ethyl)phenyl)-3,5-dimethyl benzamide]",
≤ 50,"Cc1cccc(C(=O)Nc2cccc([C@@H](C)Oc3cc(-c4cccnc4)cnc3N)c2)c1 [Compound 202, (R)-N-(3-(1-((6-amino-[3,3′-bipyridin]-5-yl)oxy)ethyl)phenyl)-3-methylbenzamide]",
51 to 500,"Cc1cccc(C(=O)Nc2cccc([C@@H](C)Oc3cc(Cl)cnc3N)n2)c1 [Compound 141, (R)-N-(6-(1-((2-amino-5-chloropyridin-3-yl)oxy)ethyl)-pyridin-2-yl)-3-methylbenzamide]",
≤ 50,"C[C@@H](Oc1cc(-c2cnn(C)c2)cnc1N)c1cccc(NC(=O)c2cccc(C3CC3)c2)c1 [Compound 174, (R)-N-(3-(1-((2-amino-5-(1-methyl-1H-pyrazol-4-yl)pyridin-3-yl)oxy)ethyl)phenyl)-cyclopropylbenzamide]",
≤ 50,"C[C@@H](Oc1cc(-c2cnn(C)c2)cnc1N)c1cccc(NC(=O)c2ccc(C(F)(F)F)c(S(C)(=O)=O)c2)c1 [Compound 175, (R)-N-(3-(1-((2-amino-5-(1-methyl-1H-pyrazol-4-yl)pyridin-3-yl)oxy)ethyl)phenyl)-3-(methylsulfonyl)-4-(trifluoromethyl)benzamide]",

# — US11767296B2, “Heteroaryl compounds as kinase inhibitor” (FUJIAN HAIXI PHARMACEUTICALS CO., LTD, priority 2018, dated 2023)
